Measured values from patent US20030065030A1, “Autonomic controlling agents and health drinks and foods” (priority 2001, published 2003).

How the values were obtained:
2DG hyperglycemic rats = assay: anti-hyperglycemia in the 2DG hyperglycemic rats; assay type: in vivo, rat
Description: Since blood glucose levels are expected to be reduced when the activity of the autonomic nervous system is controlled by carnosine at a low dose, the effect of carnosine on anti-hyperglycemia in the 2DG hyperglycemic rats was investigated according to the method of Chun et al. (Brain Research 809:165-174, 1998). Wistar male rats (initial weight, about 250 g) were used that had been acclimated for at least 10 days to an environment in a room illuminated with an incandescent light of 80 lux on the average for 12 hours at room temperature (24 +/− 1° C.) with free access to the feed.
Three days before the experiment, rats under anesthesia with pentobarbital (35 mg/kg body weight, intraperitoneal administration) received the insertion of a cardiac catheter comprising a silastic tubing (Dow Corning, Midland, Mich.) and a polyethylene tubing (Clay Adams, Parsippany, N.J.) into the right atrium and a polyethylene tubing into the right lateral cerebral ventricle (LCV). On the day of the experiment, carnosine dissolved in physiological saline was administered to the rats intracranially (0.01 ml) or intraperitoneally (0.1 ml) with the simultaneous administration into the rat LCV of 80 μmol 2-deoxy-D-glucose (2DG, 0.01 ml). The control rats received physiological saline instead of carnosine and an artificial cerebrospinal fluid in stead of 2DG, each at the same amount.
Sixty minutes after the administration of 2DG into the LCV, 300 μl of blood was taken via the cardiac catheter and the plasma level of glucose was determined. The glucose concentrations in the plasma were measured using the Fuji-Dri-chem system (Fuji Film Tokyo) according to the glucose oxidase method. Changes in plasma concentrations of glucose were expressed as a ratio (%) relative to the control value at 90 minutes after 2DG administration set at 100. Four or five rats were used in the experiments. Data were tested with ANOVA (p<0.05) and were expressed as mean +/− standard error.

STZ diabetic rats = assay: anti-hyperglycemia in the STZ diabetic rats undergoing the oral glucose tolerance test; assay type: in vivo, rat
Experimental: Wistar male rats (initial weight, about 250 g) were used. They were housed in a room illuminated with an incandescent light of 80 luxes on the average for 12 hours with free access to feed, and adapted to the environment at least 10 days. Three days before the experiment, rats under anesthesia with pentobarbital (35 mg/kg body weight, intraperitoneal administration) received the insertion of a cardiac catheter comprising a silastic tubing (Dow Corning, Midland, Mich.) and a polyethylene tubing (Clay Adams, Parsippany, N.J.) into the right atrium and a polyethylene tubing into the right lateral cerebral ventricle (LCV).
Then, the STZ (streptozotocin) diabetic rats were created according to the report by Portha et al. (Diabetes 30:64-69, 1981). Streptozotocin (STZ, manufactured by Sigma) dissolved in 0.05 M citric acid solution (pH 4.5) at a concentration of […] was intraperitoneally administered at 60 mg/kg body weight. To the STZ diabetic rats thus created, an aqueous solution of glucose dissolved at 0.5 g/ml was orally administered at 1 ml (0.5 g) per animal (oral glucose load). Simultaneously with the glucose load, carnosine dissolved in physiological saline was administered to the rats intracranially (0.01 ml) or intraperitoneally (0.1 ml).
The oral administration employed a sonde, and the intracranially administration was performed via a LVC polyethylene tube and the intraperitoneal administration employed an injection syringe and a needle. The control rats received physiological saline instead of carnosine, and an artificial cerebrospinal fluid instead of 2DG, each at the same amount. Before and at 15, 30, 60, and 90 minutes after the oral administration of glucose, 300 μl of blood was taken via the cardiac catheter and the glucose concentrations in the plasma (blood glucose levels) were determined. The glucose concentration in the plasma at the time of carnosine administration was calculated as a ratio (%) relative to the plasma glucose concentration before glucose administration set at 100. Four or five rats were used in the experiment. Data were tested with ANOVA (p<0.05) and were expressed as mean +/− standard error.

[1] = system: sympathetic nerve adrenal branches; assay: efferent neural activity of the sympathetic nerve adrenal branches after intravenous carnosine; assay type: in vivo, rat; conditions: 100 ng intravenous
Experimental: According to the method of Niijima (Neurobiology 3:299-307, 1995), the effect of carnosine on the autonomic nerve activity was investigated. Wistar male rats, weighing about 300 g, that had been kept in an environment of room temperature (24° C.) and free access to the feed were fasted (with free access to water) 12 hours before the start of the experiment. Rats were subjected to abdominal section under urethane anesthesia (1 g/kg body weight, intraperitoneal administration), neurofilaments were isolated from central cut ends of a sympathetic nerve branch or a vagal nerve branch, and the efferent neural activity was recorded via an AC amplifier. The neural activity was observed using an oscilloscope and was recorded into magnetic tape. At the same time, the time course of the neural activity was recorded with a pen-type recorder via a rate meter with a reset time set at 5 seconds.
Carnosine (100 ng or 1,000 ng dissolved in 0.1 ml physiological saline) was intravenously administered. As the control, physiological saline (0.1 ml) was alone administered intravenously.
The effect of carnosine administration was calculated as the neural activity count (%) after carnosine administration relative to neural activity count (mean value of 10 activity counts during 5 minutes) before administration set at 100. Five rats were used for each experiment. Data were tested with ANOVA (p<0.05) and were expressed as mean +/− standard error.

[2] = system: carnosine-degrading enzyme; assay: carnosine-degrading enzyme activity in the plasma of rats; assay type: in vitro ADME

Structure (SMILES): NCCC(=O)N[C@@H](Cc1cnc[nH]1)C(=O)O [carnosine, β-alanyl-L-histidine]
- effect on hyperglycemia (2DG hyperglycemic rats; 10 ng intracranially administered): suppressed hyperglycemia
- suppression rate of hyperglycemia (plasma glucose) (2DG hyperglycemic rats; 10 ng intraperitoneal): 16.0%
- suppression rate of hyperglycemia (plasma glucose) (2DG hyperglycemic rats; 100 ng intraperitoneal): 31.5%
- suppression rate of hyperglycemia (plasma glucose) (2DG hyperglycemic rats; 1,000 ng intraperitoneal): 26.8%
- suppression rate of hyperglycemia (plasma glucose) (2DG hyperglycemic rats; 10,000 ng intraperitoneal): 27.6%
- suppression rate of hyperglycemia (plasma glucose) (2DG hyperglycemic rats; 100,000 ng intraperitoneal): 21.9%
- hypoglycemic action (2DG hyperglycemic rats; high dose of 1,000,000 ng (3.3 mg/kg body weight) intraperitoneal): did not show any hypoglycemic action
- suppression rate of increase in blood glucose by oral glucose load (STZ diabetic rats; 10 ng intracranial, 15 minutes): 14.5%
- suppression rate of increase in blood glucose by oral glucose load (STZ diabetic rats; 10 ng intracranial, 30 minutes): 17.3%
- suppression rate of increase in blood glucose by oral glucose load (STZ diabetic rats; 10 ng intracranial, 60 minutes): 14.7%
- suppression rate of increase in blood glucose by oral glucose load (STZ diabetic rats; 10 ng intracranial, 90 minutes): 11.4%
- suppression rate of increase in blood glucose by oral glucose load (STZ diabetic rats; 100 ng intraperitoneal, 60 minutes): 14.3%
- suppression rate of increase in blood glucose by oral glucose load (STZ diabetic rats; 100 ng intraperitoneal, 90 minutes): 12.4%
- suppression rate of efferent neural activity of the sympathetic nerve adrenal branches ([1]; 30 minutes after administration): 31.3%
- suppression rate of efferent neural activity of the sympathetic nerve adrenal branches ([1]; 60 minutes after administration): 46.9%
- suppression rate of efferent neural activity of the sympathetic nerve adrenal branches ([1]; 90 minutes after administration): 58.1%
- carnosine-degrading enzyme activity [2]: 0.01 to 0.04 µmol/h/mL
